Results from PubChem BioAssay (NCI).
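Five concentrations, 48 hours, 96-well plates. TGI is the concentration that stops growth completely.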

What was measured:
Experiment in all cases: DTP human tumour cell line panel, 48 h
786-0 renal = test system: 786-0 renal
A498 renal = test system: A498 renal
A549 NSCLC = test system: A549 NSCLC
ACHN renal = test system: ACHN renal
BT-549 breast = test system: BT-549 breast
CAKI-1 renal = test system: CAKI-1 renal
CCRF-CEM leukemia = test system: CCRF-CEM leukemia
COLO 205 colon = test system: COLO 205 colon
DU-145 prostate = test system: DU-145 prostate
EKVX NSCLC = test system: EKVX NSCLC
HCC-2998 colon = test system: HCC-2998 colon
HCT-116 colon = test system: HCT-116 colon
HCT-15 colon = test system: HCT-15 colon
HL-60(TB) leukemia = test system: HL-60(TB) leukemia
HOP-92 NSCLC = test system: HOP-92 NSCLC
HS 578T breast = test system: HS 578T breast
HT29 colon = test system: HT29 colon
K-562 leukemia = test system: K-562 leukemia
KM12 colon = test system: KM12 colon
LOX IMVI melanoma = test system: LOX IMVI melanoma
M14 melanoma = test system: M14 melanoma
MCF7 breast = test system: MCF7 breast
MDA-MB-231 breast = test system: MDA-MB-231 breast
MDA-MB-435 = test system: MDA-MB-435
MDA-N = test system: MDA-N
MOLT-4 leukemia = test system: MOLT-4 leukemia
NCI-H226 lung = test system: NCI-H226 lung
NCI-H23 lung = test system: NCI-H23 lung
NCI-H460 lung = test system: NCI-H460 lung
NCI-H522 lung = test system: NCI-H522 lung
NCI/ADR-RES ovarian = test system: NCI/ADR-RES ovarian
OVCAR-3 ovarian = test system: OVCAR-3 ovarian
OVCAR-4 ovarian = test system: OVCAR-4 ovarian
OVCAR-5 ovarian = test system: OVCAR-5 ovarian
OVCAR-8 ovarian = test system: OVCAR-8 ovarian
PC-3 prostate = test system: PC-3 prostate
RPMI-8226 leukemia = test system: RPMI-8226 leukemia
RXF 393 renal = test system: RXF 393 renal
SF-268 CNS = test system: SF-268 CNS
SF-295 CNS = test system: SF-295 CNS
SF-539 CNS = test system: SF-539 CNS
SK-MEL-2 melanoma = test system: SK-MEL-2 melanoma
SK-MEL-28 melanoma = test system: SK-MEL-28 melanoma
SK-MEL-5 melanoma = test system: SK-MEL-5 melanoma
SK-OV-3 ovarian = test system: SK-OV-3 ovarian
SN12C renal = test system: SN12C renal
SNB-19 CNS = test system: SNB-19 CNS
SNB-75 CNS = test system: SNB-75 CNS
SW-620 colon = test system: SW-620 colon
T-47D breast = test system: T-47D breast
TK-10 renal = test system: TK-10 renal
U251 CNS = test system: U251 CNS
UACC-257 melanoma = test system: UACC-257 melanoma
UACC-62 melanoma = test system: UACC-62 melanoma
UO-31 renal = test system: UO-31 renal
HOP-62 NSCLC = test system: HOP-62 NSCLC
IGROV1 ovarian = test system: IGROV1 ovarian
MALME-3M melanoma = test system: MALME-3M melanoma
SR leukemia = test system: SR leukemia

Measured: TGI

COc1cc(/C=C/C(=O)N[C@@H]2C(=O)N3[C@@H]2SC(C)(C)[C@@H]3C(=O)O)cc(OC)c1OC
> 100 µM: 786-0 renal | A498 renal | A549 NSCLC | ACHN renal | BT-549 breast | CAKI-1 renal | CCRF-CEM leukemia | COLO 205 colon | DU-145 prostate | EKVX NSCLC | HCC-2998 colon | HCT-116 colon | HCT-15 colon | HL-60(TB) leukemia | HOP-92 NSCLC | HS 578T breast | HT29 colon | K-562 leukemia | KM12 colon | LOX IMVI melanoma | M14 melanoma | MCF7 breast | MDA-MB-231 breast | MDA-MB-435 | MDA-N | MOLT-4 leukemia | NCI-H226 lung | NCI-H23 lung | NCI-H460 lung | NCI-H522 lung | NCI/ADR-RES ovarian | OVCAR-3 ovarian | OVCAR-4 ovarian | OVCAR-5 ovarian | OVCAR-8 ovarian | PC-3 prostate | RPMI-8226 leukemia | RXF 393 renal | SF-268 CNS | SF-295 CNS | SF-539 CNS | SK-MEL-2 melanoma | SK-MEL-28 melanoma | SK-MEL-5 melanoma | SK-OV-3 ovarian | SN12C renal | SNB-19 CNS | SNB-75 CNS | SW-620 colon | T-47D breast | TK-10 renal | U251 CNS | UACC-257 melanoma | UACC-62 melanoma | UO-31 renal

c1ccc(/N=C2\c3ccccc3CN2c2ccccn2)nc1
> 100 µM: 786-0 renal | A498 renal | A549 NSCLC | ACHN renal | BT-549 breast | CAKI-1 renal | COLO 205 colon | DU-145 prostate | EKVX NSCLC | HCC-2998 colon | HCT-116 colon | HCT-15 colon | HOP-62 NSCLC | HS 578T breast | HT29 colon | IGROV1 ovarian | K-562 leukemia | KM12 colon | LOX IMVI melanoma | M14 melanoma | MCF7 breast | MDA-MB-231 breast | MDA-MB-435 | MDA-N | MOLT-4 leukemia | NCI-H226 lung | NCI-H23 lung | NCI-H460 lung | NCI-H522 lung | OVCAR-3 ovarian | OVCAR-4 ovarian | OVCAR-5 ovarian | OVCAR-8 ovarian | PC-3 prostate | RPMI-8226 leukemia | RXF 393 renal | SF-268 CNS | SF-295 CNS | SF-539 CNS | SK-MEL-2 melanoma | SK-MEL-28 melanoma | SK-MEL-5 melanoma | SK-OV-3 ovarian | SN12C renal | SNB-19 CNS | SNB-75 CNS | SW-620 colon | TK-10 renal | U251 CNS | UACC-257 melanoma | UACC-62 melanoma | UO-31 renal
72.7 µM: HOP-92 NSCLC
77.2 µM: T-47D breast

N#Cc1nn(C2OC(COC(=O)c3ccccc3)C(OC(=O)c3ccccc3)C2OC(=O)c2ccccc2)c2nc[nH]c(=O)c12 (stereo not drawn)
90.4 µM: MALME-3M melanoma
65.6 µM: SK-MEL-5 melanoma
83.4 µM: HL-60(TB) leukemia
95.4 µM: MOLT-4 leukemia
47.2 µM: A498 renal
> 100 µM: 786-0 renal | A549 NSCLC | ACHN renal | CAKI-1 renal | COLO 205 colon | DU-145 prostate | EKVX NSCLC | HCC-2998 colon | HCT-116 colon | HCT-15 colon | HOP-62 NSCLC | HS 578T breast | HT29 colon | IGROV1 ovarian | K-562 leukemia | M14 melanoma | MCF7 breast | MDA-MB-231 breast | MDA-MB-435 | MDA-N | NCI-H226 lung | NCI-H23 lung | NCI-H460 lung | NCI-H522 lung | NCI/ADR-RES ovarian | OVCAR-3 ovarian | OVCAR-4 ovarian | OVCAR-5 ovarian | OVCAR-8 ovarian | PC-3 prostate | RPMI-8226 leukemia | RXF 393 renal | SF-268 CNS | SF-295 CNS | SF-539 CNS | SK-MEL-2 melanoma | SK-MEL-28 melanoma | SK-OV-3 ovarian | SN12C renal | SNB-19 CNS | SNB-75 CNS | SW-620 colon | T-47D breast | TK-10 renal | U251 CNS | UACC-257 melanoma | UACC-62 melanoma | UO-31 renal
84.7 µM: CCRF-CEM leukemia
94.4 µM: SR leukemia

NCC(=O)N1CCN(c2nc(N3CCCC3)c3nc(Cl)c(NCc4ccccc4)nc3n2)CC1
9.87 µM: OVCAR-5 ovarian
7.33 µM: PC-3 prostate
3.54 µM: SK-OV-3 ovarian
3.17 µM: SK-MEL-5 melanoma
3.03 µM: HCC-2998 colon | T-47D breast
3.16 µM: SNB-75 CNS
4.34 µM: ACHN renal
3.58 µM: SF-539 CNS
3.42 µM: SK-MEL-2 melanoma
3.06 µM: UO-31 renal
3.15 µM: M14 melanoma
4.41 µM: SF-268 CNS
3.81 µM: EKVX NSCLC
2.89 µM: RXF 393 renal
6.82 µM: DU-145 prostate
19 µM: NCI-H226 lung
3.24 µM: UACC-257 melanoma | UACC-62 melanoma
3.34 µM: MDA-N | SN12C renal
3.38 µM: MCF7 breast
3.23 µM: HCT-116 colon
3.59 µM: NCI-H460 lung
6.4 µM: CAKI-1 renal
3.63 µM: NCI-H23 lung
4.79 µM: OVCAR-4 ovarian
36.8 µM: NCI/ADR-RES ovarian
3.11 µM: 786-0 renal
3.74 µM: BT-549 breast
3.67 µM: HCT-15 colon
3.73 µM: MALME-3M melanoma | TK-10 renal
3.19 µM: COLO 205 colon
